Experimental data published in ChEMBL document CHEMBL5518214, “Discovery and Structure-Activity Relationships of Novel ssDAF-12 Receptor Modulators” (J Med Chem, 2024).
In brackets after ≈: the same amount, converted by molar mass.

Key:
[1] = target: T1, Nuclear hormone receptor isoform A (Strongyloides stercoralis, UniProt A0A0K0EQJ4); experiment: Antagonist activity at GST-tagged Strongyloides stercoralis DAF-12 LBD incubated for 0.5 hrs in presence of biotinylated SRC1 and SRC2 by Alphascreen assay
T1 sequence (A0A0K0EQJ4 whole entry): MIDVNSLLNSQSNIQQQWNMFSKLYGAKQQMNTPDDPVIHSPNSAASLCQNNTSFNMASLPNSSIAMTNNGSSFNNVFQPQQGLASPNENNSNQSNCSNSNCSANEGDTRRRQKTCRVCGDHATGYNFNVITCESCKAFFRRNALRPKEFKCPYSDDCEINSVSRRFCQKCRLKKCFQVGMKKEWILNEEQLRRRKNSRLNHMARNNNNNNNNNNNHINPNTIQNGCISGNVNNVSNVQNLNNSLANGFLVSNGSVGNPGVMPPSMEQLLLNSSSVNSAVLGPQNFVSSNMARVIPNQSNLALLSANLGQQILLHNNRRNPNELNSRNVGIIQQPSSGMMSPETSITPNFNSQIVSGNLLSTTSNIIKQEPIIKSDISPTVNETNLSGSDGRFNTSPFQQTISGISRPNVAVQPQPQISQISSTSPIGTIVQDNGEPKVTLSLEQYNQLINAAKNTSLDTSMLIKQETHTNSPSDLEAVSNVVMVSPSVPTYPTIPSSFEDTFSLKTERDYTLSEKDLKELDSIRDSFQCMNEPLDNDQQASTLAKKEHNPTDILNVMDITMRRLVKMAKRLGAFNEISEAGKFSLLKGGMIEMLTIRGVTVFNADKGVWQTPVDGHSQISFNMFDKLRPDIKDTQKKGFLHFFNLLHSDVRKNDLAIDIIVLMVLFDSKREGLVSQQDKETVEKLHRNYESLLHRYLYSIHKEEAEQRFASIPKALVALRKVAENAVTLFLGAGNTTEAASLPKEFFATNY

[2] = target: T1, Nuclear hormone receptor isoform A; experiment: Agonist activity at GST-tagged Strongyloides stercoralis DAF-12 LBD incubated for 0.5 hrs in presence of biotinylated SRC1 and SRC2 by Alphascreen assay
[3] = target: T2, Nuclear hormone receptor isoform A (Strongyloides stercoralis) (UniProt A0A0K0EQJ4); experiment: Agonist activity at GST-tagged Strongyloides stercoralis DAF-12 LBD incubated for 0.5 hrs in presence of biotinylated SRC1 and SRC2 by Alphascreen assay relative to control; conditions: filed as agonist
T2 sequence (whole entry): T1 sequence (A0A0K0EQJ4 whole entry)

[4] = target: T1, Nuclear hormone receptor isoform A; experiment: Agonist activity at Strongyloides stercoralis DAF-12 LBD transfected in CHO cells; format: cell-based
HepG2 = experiment: Cytotoxicity against human HepG2 cells assessed as reduction in cell viability incubated for 4 hrs by celltiter glo assay; format: toxicity, cell-based; conditions: hepg2, 4 h
[5] = Kinetic solubility of compound at pH 7.4 by HPLC/MS analysis; format: physicochemical; conditions: buffer, read-out: Kinetic_solubility
[6] = Metabolic stability in human liver microsome assessed as parent compound remaining measured for 30 mins by LC-MS analysis; format: ADME; conditions: human liver microsomes, read-out: Stability
[7] = Metabolic stability in human liver microsome assessed as half life measured for 30 mins by LC-MS analysis; format: ADME; conditions: human liver microsomes
[8] = Drug metabolism in human liver microsome assessed as (2S,6R)-6-((5S,10S,13R,17R)-3-hydroxy-10,13-dimethyl-2,3,4,5,6,9,10,11,12,13,14,15,16,17-tetradecahydro-1H-cyclopenta[a]phenanthren-17-yl)-2-methylheptanoic acid formation by measuring retention time incubated for 90 mins in presence of NADPH by LC-MS/MS analysis; format: ADME; conditions: microsomes, 1.5 h
[9] = Drug metabolism in human liver microsome incubated for 90 mins in presence of NADPH by LC-MS/MS analysis; format: ADME; conditions: microsomes, 1.5 h
[10] = target: T1, Nuclear hormone receptor isoform A; experiment: Partial agonist activity at GST-tagged Strongyloides stercoralis DAF-12 LBD incubated for 0.5 hrs in presence of biotinylated SRC1 and SRC2 by Alphascreen assay
[11] = target: T2, Nuclear hormone receptor isoform A (Strongyloides stercoralis); experiment: Partial agonist activity at GST-tagged Strongyloides stercoralis DAF-12 LBD incubated for 0.5 hrs in presence of biotinylated SRC1 and SRC2 by Alphascreen assay relative to control

Compound: C[C@H](CCCC1=C(O)CCC1=O)[C@H]1CC[C@H]2C3=CC[C@H]4CC(=O)CC[C@]4(C)C3CC[C@]12C (stereo partly specified)
- IC50 [1]: 16.8 µM
- EC50 [2]: > 100 µM

Compound: C[C@H](CCC[C@H](C)C(=O)NS(=O)(=O)N(C)C)[C@H]1CC[C@H]2C3=CC[C@H]4CC(=O)CC[C@]4(C)C3CC[C@]12C (stereo partly specified)
- EC50 [2]: 0.65 µM
- Emax [3]: 95%

Compound: C[C@H](CCC[C@H](C)C(=O)O)[C@H]1CC[C@H]2C3=CC[C@H]4CC(=O)CC[C@]4(C)C3CC[C@]12C (stereo partly specified)
- EC50 [2]: 0.08 µM
- Emax [3]: 100%
- EC50 [4]: 0.09 µM
- Activity (HepG2): Non-Toxic
- solubility kinetic [5]: 4 µM (≈ 1.66 µg/mL)
- remaining at 0.5 h [6]: 50%
- half-life [7]: 17 min
- Retention_time [8]: 8.51 min
- Drug metabolism [9]: Metabolite_Detected

Compound: C[C@H](CCc1nnn(C)n1)[C@H]1CC[C@H]2C3=CC[C@H]4CC(=O)CC[C@]4(C)C3CC[C@]12C (stereo partly specified)
- IC50 [1]: 10 µM
- EC50 [2]: > 100 µM

Compound: CNC(=O)[C@@H](C)CCC[C@@H](C)[C@H]1CC[C@H]2C3=CC[C@H]4CC(=O)CC[C@]4(C)C3CC[C@]12C (stereo partly specified)
- EC50 [10]: 1.02 µM
- Emax [11]: 11%

Compound: C[C@H](CCC[C@H](C)C(=O)NS(C)(=O)=O)[C@H]1CC[C@H]2C3=CC[C@H]4CC(=O)CC[C@]4(C)C3CC[C@]12C (stereo partly specified)
- EC50 [2]: 0.41 µM
- Emax [3]: 85%
- EC50 [4]: 0.47 µM
- solubility kinetic [5]: > 250 µM
- Retention_time [8]: 7.28 min

Compound: C[C@H](CO)CCC[C@@H](C)[C@H]1CC[C@H]2C3=CC[C@H]4CC(=O)CC[C@]4(C)C3CC[C@]12C (stereo partly specified)
- EC50 [10]: 1.02 µM
- Emax [11]: 36%

Compound: C[C@@H](CCC[C@@H](C)[C@H]1CC[C@H]2C3=CC[C@H]4CC(=O)CC[C@]4(C)C3CC[C@]12C)COS(=O)(=O)O (stereo partly specified)
- EC50 [10]: 7.2 µM
- Emax [11]: 15%

Compound: C[C@H](CCc1nnn(C(c2ccccc2)(c2ccccc2)c2ccccc2)n1)[C@H]1CC[C@H]2C3=CC[C@H]4CC(=O)CC[C@]4(C)C3CC[C@]12C (stereo partly specified)
- IC50 [1]: 60 µM
- EC50 [2]: > 100 µM

Compound: C[C@H](CCc1nnn(C(C)(C)C)n1)[C@H]1CC[C@H]2C3=CC[C@H]4CC(=O)CC[C@]4(C)C3CC[C@]12C (stereo partly specified)
- IC50 [1]: 7.8 µM
- EC50 [2]: > 100 µM

Compound: C[C@H](CCCc1nnn(C)n1)[C@H]1CC[C@H]2C3=CC[C@H]4CC(=O)CC[C@]4(C)C3CC[C@]12C (stereo partly specified)
- IC50 [1]: 17.9 µM
- EC50 [2]: > 100 µM

Compound: C[C@H](CCc1nn[nH]n1)[C@H]1CC[C@H]2C3=CC[C@H]4CC(=O)CC[C@]4(C)C3CC[C@]12C (stereo partly specified)
- IC50 [1]: 6.9 µM
- EC50 [2]: > 100 µM

Compound: Cc1ccc(S(=O)(=O)NC(=O)[C@@H](C)CCC[C@@H](C)[C@H]2CC[C@H]3C4=CC[C@H]5CC(=O)CC[C@]5(C)C4CC[C@]23C)cc1 (stereo partly specified)
- EC50 [2]: 4.7 µM
- Emax [3]: 40%
